Bounds are passed on as bounds.

The target of this assay is T1, recombinant human GST-SYK (Homo sapiens, UniProt P43405).
T1 construct: purchased Carna Biosciences 08-176
Nature of the assay: Homogeneous Time-Resolved Fluorescence (HTRF) assay for the recombinant human Syk enzyme. The settings on record: HTRF assay, recombinant human GST-SYK; IC50 given as class symbols; read-out: rhSYK Activity. It is filed as biochemical. In a few lines: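 GST-hSYK ([…]) was preincubated with inhibitor (0.1% DMSO final) for 10 minutes at room temperature in 15 mM Tris-HCl pH 7.5, 0.01% tween 20, 2 mM DTT. Biotinylated peptide (250 nM), 5 mM magnesium and 25 μM ATP started a 45-minute room-temperature reaction, read by time-resolved fluorescence.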
On the technique in general: In TR-FRET formats the signal depends on donor and acceptor labels being close together.
In the case of `Cc1cc(Nc2nccc(C(F)(F)F)n2)cc(-c2ccc(NCC3CCC(C(=O)O)CC3)nc2)c1` (stereo not drawn) [Example 7.148, 4-({[5-(3-methyl-5-{[4-(trifluoromethyl)pyrimidin-2-yl]amino}phenyl)pyridin-2-yl]amino}methyl)cyclohexanecarboxylic acid], the IC50 was less than 100 nM.

In the case of `Cc1cc(Nc2nccc(C(F)(F)F)n2)cc(-c2ccc(NC(C)(C#N)CC(F)(F)F)nc2)c1` (stereo not drawn) [Example 7.117, 4,4,4-trifluoro-2-methyl-2-{[5-(3-methyl-5-{[4-(trifluoromethyl)pyrimidin-2-yl]amino}phenyl)pyridin-2-yl]amino}butanenitrile], the IC50 fell in the range of 100 to 1000 nM.

For the molecule `Cc1cc(Nc2nccc(C(F)(F)F)n2)cc(-c2ccc(N3CCN(C)C(=O)C3)nc2)c1` [Example 7.33, 1-methyl-4-[5-(3-methyl-5-{[4-(trifluoromethyl)pyrimidin-2-yl]amino}phenyl)pyridin-2-yl]piperazin-2-one], the IC50 was 100 to 1000 nM.

For `COCC1CN(C(=O)c2ccc(-c3cc(C)cc(Nc4nccc(C(F)(F)F)n4)c3)cn2)CCO1` (stereo not drawn) [Example 16.39, N-[3-(6-{[2-(methoxymethyl)morpholin-4-yl]carbonyl}pyridin-3-yl)-5-methylphenyl]-4-(trifluoromethyl)pyrimidin-2-amine], the IC50 is less than 100 nM.

In the case of `Cc1cc(Nc2nccc(C(F)(F)F)n2)cc(-c2ccc(N[C@H](C(=O)O)C(C)(C)C)nc2)c1` [Example 7.106, 3-methyl-N-[5-(3-methyl-5-{[4-(trifluoromethyl)pyrimidin-2-yl]amino}phenyl)pyridin-2-yl]-L-valine], the IC50 is less than 100 nM.

`Cc1cc(Nc2nccc(C(F)(F)F)n2)cc(-c2ccc(NCCC(N)=O)nc2)c1` [Example 7.43, N~3~-[5-(3-methyl-5-{[4-(trifluoromethyl)pyrimidin-2-yl]amino}phenyl)pyridin-2-yl]-beta-alaninamide]: the IC50 is less than 100 nM.

On to `Cc1cc(Nc2nccc(C(F)(F)F)n2)cc(-c2ccnc(N(C)CCO)c2)c1` [Example 15.45, 2-{methyl[4-(3-methyl-5-{[4-(trifluoromethyl)pyrimidin-2-yl]amino}phenyl)pyridin-2-yl]amino}ethanol], for which the IC50 is less than 100 nM.

With `Cc1cc(Nc2nccc(C(F)(F)F)n2)cc(-c2ccc(N3CC[C@H]3C(N)=O)nc2)c1` [Example 12.9, (2S)-1-[5-(3-methyl-5-{[4-(trifluoromethyl)pyrimidin-2-yl]amino}phenyl)pyridin-2-yl]azetidine-2-carboxamide], the IC50 was less than 100 nM.

Consider `OCCN(CCO)c1cccc(-c2cc(Nc3nccc(C(F)(F)F)n3)cc(N3CCOCC3)c2)n1` [Example 1.4, 2,2′-{[6-(3-morpholin-4-yl-5-{[4-(trifluoromethyl)pyrimidin-2-yl]amino}phenyl)pyridin-2-yl]imino}diethanol], for which the IC50 lay in the range of 100 to 1000 nM.

For the molecule `COc1ccnc(Nc2cc(C)cc(-c3ccc(CCC(=O)O)cn3)c2)n1` [Example 2.26, 3-(6-{3-[(4-methoxypyrimidin-2-yl)amino]-5-methylphenyl}pyridin-3-yl)propanoic acid], the IC50 lay in the range of 100 to 1000 nM.

`COc1ccc(-c2cccc(Nc3nccc(C(F)(F)F)n3)c2)cn1` [Example 2.41, N-[3-(6-methoxypyridin-3-yl)phenyl]-4-(trifluoromethyl)pyrimidin-2-amine]: the IC50 was 100 to 1000 nM.

Turning to `Cc1cc(Nc2nccc(C(F)(F)F)n2)cc(-c2ccc(C3(O)COC(C)(C)OC3)nc2)c1` [Example 9.32, 2,2-dimethyl-5-[5-(3-methyl-5-{[4-(trifluoromethyl)pyrimidin-2-yl]amino}phenyl)pyridin-2-yl]-1,3-dioxan-5-ol], the IC50 lay within 100 to 1000 nM.

On to `CCC(CO)NC(=O)c1ccc(-c2cc(C)cc(Nc3nccc(C(F)(F)F)n3)c2)cn1` (stereo not drawn) [Example 16.9, N-[1-(hydroxymethyl)propyl]-5-(3-methyl-5-{[4-(trifluoromethyl)pyrimidin-2-yl]amino}phenyl)pyridine-2-carboxamide], for which the IC50 is 100 to 1000 nM.

Turning to `Cn1ccc(-c2cccc(Nc3nccc(C(F)(F)F)n3)c2)cc1=O` [Example 5.2, 1-methyl-4-(3-{[4-(trifluoromethyl)pyrimidin-2-yl]amino}phenyl)pyridin-2(1H)-one], the IC50 was in the range of 100 to 1000 nM.

As for `Cc1cc(Nc2nccc(C(F)(F)F)n2)cc(-c2ccc(C(=O)NCC(O)CCCl)nc2)c1` (stereo not drawn) [Example 16.35, N-(4-chloro-2-hydroxybutyl)-5-(3-methyl-5-{[4-(trifluoromethyl)pyrimidin-2-yl]amino}phenyl)pyridine-2-carboxamide], the IC50 was in the range of 100 to 1000 nM.

Turning to `Cc1cc(Nc2nccc(C(F)(F)F)n2)cc(-c2ccnc(NCC3CCC(=O)N3)c2)c1` (stereo not drawn) [Example 15.32, 5-({[4-(3-methyl-5-{[4-(trifluoromethyl)pyrimidin-2-yl]amino}phenyl)pyridin-2-yl]amino}methyl)pyrrolidin-2-one], the IC50 was less than 100 nM.

With `Cc1cc(Nc2nccc(C(F)(F)F)n2)cc(-c2ccnc(O)c2)c1` [Example 2.125, 4-(3-methyl-5-{[4-(trifluoromethyl)pyrimidin-2-yl]amino}phenyl)pyridin-2-ol], the IC50 was less than 100 nM.

For the molecule `Cc1cc(Nc2nccc(C(F)(F)F)n2)cc(-c2ccnc(NC(C)(C)C(=O)O)c2)c1` [Example 15.43, 2-methyl-N-[4-(3-methyl-5-{[4-(trifluoromethyl)pyrimidin-2-yl]amino}phenyl)pyridin-2-yl]alanine], the IC50 is less than 100 nM.

As for `Cc1cc(Nc2nccc(C(F)(F)F)n2)cc(-c2ccc(NCc3ncnn3C)nc2)c1` [Example 7.21, N-[3-methyl-5-(6-{[(1-methyl-1H-1,2,4-triazol-5-yl)methyl]amino}pyridin-3-yl)phenyl]-4-(trifluoromethyl)pyrimidin-2-amine], the IC50 is less than 100 nM.

Take `O=C(O)CCc1ccc(-c2cccc(Nc3nccc(C(F)(F)F)n3)c2)cn1` [Example 2.82, 3-[5-(3-{[4-(trifluoromethyl)pyrimidin-2-yl]amino}phenyl)pyridin-2-yl]propanoic acid]: the IC50 is less than 100 nM.

Consider `Cc1cc(Nc2nccc(C3CC3)n2)cc(-c2ccc(C(C)(O)[C@H]3CC[C@H](C(=O)O)CC3)nc2)c1` (single isomer, unassigned) [Example 9.18, trans-4-[(1R or 1S)-1-(5-{3-[(4-cyclopropylpyrimidin-2-yl)amino]-5-methylphenyl}pyridin-2-yl)-1-hydroxyethyl]cyclohexanecarboxylic acid], for which the IC50 was less than 100 nM.

On to `Cc1cc(Nc2nccc(C(F)(F)F)n2)cc(-c2ccc(OC3CCC(C(=O)O)CC3)nc2)c1` (stereo not drawn) [Example 2.110, 4-{[5-(3-methyl-5-{[4-(trifluoromethyl)pyrimidin-2-yl]amino}phenyl)pyridin-2-yl]oxy}cyclohexanecarboxylic acid], for which the IC50 is less than 100 nM.

With `CC(=O)NCCCNc1cc(-c2cc(C)cc(Nc3nccc(C(F)(F)F)n3)c2)ccn1` [Example 15.80, N-(3-{[4-(3-methyl-5-{[4-(trifluoromethyl)pyrimidin-2-yl]amino}phenyl)pyridin-2-yl]amino}propyl)acetamide], the IC50 was in the range of 100 to 1000 nM.

Take `Cc1cc(Nc2nccc(C(F)(F)F)n2)cc(-c2ccc(C(=O)N(C)Cc3n[nH]c(=O)[nH]3)nc2)c1` [Example 16.51, N-methyl-5-(3-methyl-5-{[4-(trifluoromethyl)pyrimidin-2-yl]amino}phenyl)-N-[(5-oxo-4,5-dihydro-1H-1,2,4-triazol-3-yl)methyl]pyridine-2-carboxamide]: the IC50 is less than 100 nM.

Values taken from US9376418B2, “Substituted pyridine spleen tyrosine kinase (SYK) inhibitors” (Merck Sharp & Dohme Corp., priority 2012, dated 2016).
